From article PMC11784839, “Monoaminergic neurotransmitters are bimodal effectors of tau aggregation” (Science Advances, 2025)

Molecular target: tau (Homo sapiens, UniProt P10636)
Experiment: MCE Phenols Library screening, tau biosensor cell seeding assay (AvZ)
Type: cell-based
Conditions: for Z repl 1 / Z Repl 2: Z score; for Z repl 1 / raw data 1: replicate 1; for Z Repl 2 / raw data 2: replicate 2; for AvZ (average z score of seeding, SDs from the mean level of seeding): 10 μM phenol in cell cultures, AD brain homogenate preincubated 16 hours, two biological replicates, positive = catalyzes seeding, negative = inhibits
[1] = average Z score of two replicates, Phenols Library screen
[2] = average Z score of the two replicates, tau seeding
[3] = average puncta of the two replicates
[4] = average Z score of the two replicates, MCE Phenols Library screen

Sequence of tau (P10636 623-695 limits assumed): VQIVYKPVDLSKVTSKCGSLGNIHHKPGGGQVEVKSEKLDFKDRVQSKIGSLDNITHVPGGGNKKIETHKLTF

Row | SMILES | Z repl 1 | Z Repl 2 | av Z [1] | av puncta (average of raw data 1 and 2) | raw data 1 (puncta) | raw data 2 (puncta) | av Z [2] | AvZ (average z score of seeding, SDs from the mean level of seeding) | av puncta [3] | av Z [4] | av Z (average Z score of the two replicates, tau biosensor seeding, MCE Phenols Library screen) | raw data 1 (raw puncta) | raw data 2 (raw puncta)
1 | COc1ccc2cc3[n+](cc2c1OC)CCc1cc(O)c(O)cc1-3 [Demethyleneberberine] | -0.088 | -0.204 | -0.146 | 17943.1 | 25297.3 | 10588.9 |  |  |  |  |  |  | 
2 | Oc1ccc(OC2CCCCO2)cc1 (centres unmarked) [Deoxyarbutin] | 0.557 | -0.129 |  | 22209.6 | 33032.9 | 11386.3 | 0.214 |  |  |  |  |  | 
3 | COc1cc([C@@H]2c3cc4c(cc3C[C@H]3COC(=O)[C@@H]32)OCO4)cc(OC)c1OC [Deoxypodophyllotoxin] | 3.44 | 3.821 |  | 60606.3 | 67641.6 | 53571.1 |  |  |  |  | 3.63 |  | 
4 | COc1ccc(/C=C/c2cc(O)cc(O[C@@H]3O[C@H](CO)[C@@H](O)[C@H](O)[C@H]3O)c2)cc1 [Desoxyrhaponticin] | 0.811 | -0.238 |  | 23150.9 | 36082.1 | 10219.6 | 0.286 |  |  |  |  |  | 
5 | COc1cc(-c2coc3cc4c(c(O)c3c2=O)OCO4)cc(O)c1OC [Dichotomitin] | 0.855 | 0.348 |  | 26548.7 | 36614.6 | 16482.8 | 0.602 |  |  |  |  |  | 
6 | O=C(O)CCc1ccc(O)c(O)c1 [Dihydrocaffeic acid] | 0.014 | -0.922 |  |  |  |  |  | -0.454 | 14716.5 |  |  | 26515.6 | 2917.33
7 | O=C1c2ccc(O)cc2OCC1c1ccc(O)cc1 (centres unmarked) [Dihydrodaidzein] | -0.987 | -0.442 |  |  | 14500 | 8042.62 |  |  | 11271.3 | -0.715 |  |  | 
8 | COc1cc(CC(C)C(C)Cc2ccc(O)c(OC)c2)ccc1O (centres unmarked) [Dihydroguaiaretic acid] | -0.958 | -0.625 |  | 10465.9 | 14843.2 | 6088.67 |  |  |  | -0.792 |  |  | 
9 | O=C1c2c(O)cc(O)cc2O[C@H](c2ccc(O)cc2)[C@H]1O [Dihydrokaempferol] | -0.147 | 0.084 | -0.031 | 19127 | 24585.9 | 13668.2 |  |  |  |  |  |  | 
10 | O=C1c2c(O)cc(O)cc2O[C@H](c2cc(O)c(O)c(O)c2)[C@H]1O [Dihydromyricetin] | -1.346 | -0.885 |  |  | 10190.2 | 3319.03 |  |  |  | -1.115 |  |  | 
11 | COc1cc(CCCO)cc(OC)c1O [Dihydrosinapyl alcohol] | -0.789 | 0.221 |  |  |  |  |  | -0.284 | 16004.7 |  |  | 16882.6 | 15126.8
12 | COc1cc2c(O)c3c(c(-c4ccc5c(c4)OCO5)c2cc1OC)C(=O)OC3 [Diphyllin] | -0.334 | -0.918 |  |  | 22335.7 | 2966.05 |  |  | 12650.9 | -0.626 |  |  | 
13 | COc1cc(O)ccc1/C=C/C(=O)c1ccc(O)cc1 [Echinatin] | -1.092 | -0.742 |  | 9040.03 | 13242.9 | 4837.17 |  |  |  | -0.917 |  |  | 
14 | Cc1cc(O)c2c(c1)C(=O)c1cc(O)cc(O)c1C2=O [Emodin] | 0.139 | -0.692 |  |  |  |  |  |  | 16696.4 | -0.277 |  | 28020.6 | 5372.21
15 | O=C1C[C@@H](c2ccc(O)c(O)c2)Oc2cc(O)cc(O)c21 [Eriodictyol] | -0.756 | 0.192 |  |  |  |  |  |  | 16042.6 | -0.282 |  | 17267.7 | 14817.6

Further lines, with some results ahead:

Row | Z repl 1 | Z Repl 2 | av Z [1] | av puncta (average of raw data 1 and 2) | raw data 1 (puncta) | raw data 2 (puncta) | av Z [2] | AvZ (average z score of seeding, SDs from the mean level of seeding) | av puncta [3] | av Z [4] | SMILES | av Z (average Z score of the two replicates, tau biosensor seeding, MCE Phenols Library screen) | raw data 1 (raw puncta) | raw data 2 (raw puncta)
16 | -1.043 | -0.067 |  |  | 13826.2 | 12045.1 |  |  | 12935.6 | -0.555 | O=c1oc2c(O)c(O)cc3c(=O)oc4c(O)c(O)cc1c4c23 [Ellagic acid] |  |  | 
17 | 0.113 | -0.367 | -0.127 | 18275.8 | 27700.1 | 8851.57 |  |  |  |  | Cc1cc(O)c2c(c1)C(=O)c1cc(O)cc(O[C@@H]3O[C@H](CO)[C@@H](O)[C@H](O)[C@H]3O)c1C2=O [Emodin-8-glucoside] |  |  | 
18 | -1.302 | -0.744 |  | 7768.23 | 10713.2 | 4823.23 |  |  |  | -1.023 | COc1ccc(-c2oc3c(CC=C(C)C)c(O[C@@H]4O[C@H](CO)[C@@H](O)[C@H](O)[C@H]4O)cc(O)c3c(=O)c2O[C@@H]2O[C@@H](C)[C@H](O)[C@@H](O)[C@H]2O[C@@H]2O[C@H](CO)[C@@H](O)[C@H](O)[C@H]2O)cc1 [Epimedin A] |  |  | 
19 | 0.357 | 0.482 |  | 24278.7 | 30639 | 17918.4 | 0.42 |  |  |  | COc1ccc(-c2oc3c(CC=C(C)C)c(O[C@@H]4O[C@H](CO)[C@@H](O)[C@H](O)[C@H]4O)cc(O)c3c(=O)c2O[C@@H]2O[C@@H](C)[C@H](O)[C@@H](O)[C@H]2O[C@@H]2OC[C@@H](O)[C@H](O)[C@H]2O)cc1 [Epimedin B] |  |  | 
20 | 0.582 | -0.181 |  | 22081.1 | 33332 | 10830.3 | 0.2 |  |  |  | CC(C)=CCc1c(O[C@@H]2O[C@H](CO)[C@@H](O)[C@H](O)[C@H]2O)cc(O)c2c(=O)c(O[C@@H]3O[C@@H](C)[C@H](O)[C@@H](O)[C@H]3O)c(-c3ccc(O)cc3)oc12 [Epimedoside A] |  |  | 
21 | -0.303 | 0.417 | 0.057 | 19967.8 | 22716.1 | 17219.4 |  |  |  |  | O=C1C[C@@H](c2ccc(O)c(O)c2)Oc2cc(O[C@@H]3O[C@H](CO)[C@@H](O)[C@H](O)[C@H]3O)cc(O)c21 [Eriodictyol-7-O-glucoside] |  |  | 
22 | -0.338 | -0.78 |  |  | 22288.3 | 4440.46 |  |  | 13364.4 | -0.559 | O=c1ccc2cc(O)c(O)cc2o1 [Esculetin] |  |  | 
23 | 0.006 | 0.639 |  | 23004.4 | 26418.8 | 19589.9 | 0.322 |  |  |  | C[C@]12CC[C@@H]3c4ccc(O)cc4CC[C@H]3[C@@H]1C[C@@H](O)[C@@H]2O [Estriol] |  |  | 
24 | -0.43 | -1.15 |  | 10837.2 | 21190.3 | 484.087 |  | -0.79 |  |  | CCOC(=O)c1cc(O)c(O)c(O)c1 [Ethyl gallate] |  |  | 
